Data published in patent publication US11433136B2, “Polyacetal polymers, conjugates, particles and uses thereof” (THE GENERAL HOSPITAL CORPORATION, priority 2015, dated 2022).

Experiments:
AK4.4 tumors = test: Orthotopic AK4.4 pancreatic (PDAC) tumors in lean and obese mice; assay type: in vivo, mice (FVB)
Protocol: Diet started at six weeks of age, continued for ten weeks (C57BL/6 and FVB), at which time tumors were implanted, and then continued until the end of experiments. In the spontaneous tumor models, diets were administered until tumor collection. Mice genetically deficient for leptin (ob/ob) on a standard chow for seven weeks gained weight compared to age matched WT mice (n=8-10/group for C57Bl/6, FVB and ob/ob, 4-10/group for KPC, 7-21/group for iKRAS). Left bars represent mice fed a low-fat diet, right bars represent mice fed a high fat diet for all groups except C57/B6 on the far right of the graph, in which the right bar represents the ob/ob mice. […] PAN02 and AK4.4 syngeneic tumors were orthotopically implanted in C57BL/6 and FVB mice respectively at ten weeks of diet (lean diet, left bars; and obese diet or ob/ob mice, right bars); ob/ob mice were implanted with PAN02 tumors at seven weeks of age. Tumors were collected 21 days later. Obese animals presented with higher tumor weights than lean counterparts in all models (n=8-10/group). FIG. 7D is representative images of mesenteric peritoneal dissemination in lean and obese mice implanted with PAN02 tumors. Mesenteries collected at the same time as tumors in FIG. 7C. FIG. 7E is a graph showing the quantification of mesenteric peritoneal metastasis in the PAN02 model. FIG. 7F is a graph showing the quantification of retro-peritoneal metastasis in the AK4.4 model. Data are shown as mean±standard error of the mean (SEM). P values were determined by the Student t-test. *, P<0.05; **, P<0.01; ***, P<0.001.
Expression of genes associated with AT-1 pathway activation and fibrosis/desmoplasia is increased in PAN02 (FIG. 10A) and AK4.4 (FIG. 10B) tumors from obese mice (right bars) in comparison to lean mice (left bars). […] Data normalized to lean group. 3-4 samples per group pooled in one single PCR array fibrosis gene set plate. […] Of note, similar to αSMA, the changes of AT1, as well as other desmoplasia related markers, were relatively mild in the lean setting. […] Data are shown as mean±SEM with the exception of FIGS. 10A and 10B. P values were determined by the Student t-test unless otherwise stated. *, P<0.05; **, P<0.01, ***p<0.001.
Quantification of total and lectin-positive vessel area in AK4.4 tumors. Obese mice (right bars) presented with decreased perfusion (n=5-12 tumors/group) compared to lean mice (left bars). […] Obese mice presented with increased expression of the hypoxia marker Hif-1α in tumors. […] Doxorubicin quantified via immunofluorescence (n=4 tumors/group). […] AK4.4 syngeneic tumors were orthotopically implanted at ten weeks of diet; treatments were initiated at day 7 post-implantation and tumors resected at day 19. […] Data in FIGS. 17A, 17C and 17D, are shown as mean±SEM. P values were determined by the Student t-test unless otherwise stated. *, P<0.05.
FIGS. 18A, 18B, 18C, 18D, 18E, 18F, and 18G show the additional effects of AT-1 inhibition on obesity-aggravated desmoplasia, perfusion and drug delivery. […] Scale bar: 30 μm (left panels), 500 μm (right panel). […] FIG. 18E is a western blot showing a decrease in αSMA expression in PAN02 tumors implanted in obese AT1 KO mice compared with obese WT mice (bands are part of a larger WB. Lean control group is depicted in FIG. 18F). […] Data in FIGS. 18D, 18F and 18G are shown as mean±SEM. In FIGS. 18C and 18F, far left bars represent lean mice, middle left bars represent lean mice treated with losartan, middle right bars represent obese mice, and […] bars represent obese mice treated with losartan.

PDACs = test: Effect of losartan on immune cell populations in tumors (model not stated); design: species or system mice; details: mouse, in vivo
Protocol: FIGS. 21A, 21B, and 21C show the effect of losartan on the immune tumor microenvironment. […] Error bars represent standard error of the mean. P values were determined by the Student t-test in A. *, P<0.05, **, P<0.01, ***, P<0.001.

PDAC = details: in vivo; cited from earlier work
[1] = tested on: cardiac and renal fibrosis; details: in vivo; cited from earlier work
[2] = tested on: mouse models of Marfan syndrome; details: affected mice; cited from earlier work
Marfan syndrome = details: children; cited from earlier work

chemotherapy delivery to tumors (AK4.4 tumors; obese but not lean mice)	Structure (SMILES)	tumor αSMA protein expression (AK4.4 tumors; lean and obese)	mRNA expression of markers of tumor fibrosis/desmoplasia (AK4.4 tumors; lean mice)	response to chemotherapy with AT1 blockade (AK4.4 tumors; losartan with 5-FU, lean and obese)	tumor perfusion (AK4.4 tumors; obese but not lean mice)	cytokine expression in tumors (multiplex protein) (AK4.4 tumors; obese mice)	mRNA expression of markers of tumor fibrosis/desmoplasia (AK4.4 tumors; obese mice)	tumor fibrillar collagen (SHG) and collagen-1 expression (AK4.4 tumors; obese mice)	expression of AT1 signaling and desmoplasia-related markers (western blotting) (AK4.4 tumors; obese vs lean)	enrichment for GR(+)F480(−) cells within the CD45 population (PDACs)	enrichment for T regulatory cells within CD4 cells (PDACs)	desmoplasia in PDAC (PDAC)	vascular perfusion, drug delivery and chemotherapy effectiveness (PDAC)	incidence of cardiac and renal fibrosis [1]	blood vessel architecture and aortic aneurysms [2]	progression of aortic and muscular lesions (Marfan syndrome)	response to chemotherapy (tumor growth) (AK4.4 tumors; obese vs lean, treatment from day 7, tumors resected day 19)
increase chemotherapy delivery	CCCCc1nc(Cl)c(CO)n1Cc1ccc(-c2ccccc2-c2nn[nH]n2)cc1 [losartan]	reduced tumor αSMA protein expression more dramatically in the obese setting	did not alter these markers in lean mice	improved response to chemotherapy in both lean and obese settings but with higher magnitude in obese setting	tended to improve perfusion	reduced the expression of multiple cytokines including IL-1	reverted by losartan	reduced tumor fibrillar collagen (top panels) as well as collagen-1 expression	normalized the obesity-augmented expression	tended to decrease the enrichment for GR(+)F480(−) cells	tended to decrease the enrichment	can reduce desmoplasia in PDAC	can enhance vascular perfusion by decompressing vessels, leading to improved drug delivery and chemotherapy effectiveness	reduce the incidence of cardiac and renal fibrosis	striking effects in improving blood vessel architecture and prevented the development of aortic aneurysms	can strikingly prevent progression of aortic and muscular lesions	–
–	O=c1[nH]cc(F)c(=O)[nH]1 [Example 5-FU, 5-fluorouracil]	–	–	–	–	–	–	–	–	–	–	–	–	–	–	–	less effective in preventing tumor growth in obese animals
